Test results from patent US4201860A, “Purine derivatives” (Bristol-Myers Company, priority 1979, dated 1980).

Assays:
[1] = in words; known disadvantages; cited from earlier work
[2] = in words; cited from earlier work
[3] = test system: Arterial blood pressure (ABP); assay: In vivo hypotensive activity, arterial blood pressure (ABP) in anesthetized guinea pig; details: arterial blood pressure lowering (ED20, 20% reduction)
Method: Pharmac., 21, 379 (1969). The trachea of anesthetized guinea pig was cannulated and the ITP recorded on a polygraph under artificial ventilation. Arterial blood pressure (ABP; measure of hypotensive activity) was also measured during the experiment. Data was obtained for both intravenous and intraduodenal administration.

[4] = test system: arterial blood pressure / intratracheal pressure; assay: Separation of bronchodilator and cardiovascular effects, ratio of hypotensive ED20 / bronchodilating ED50; type: in vivo, guinea pig
Method: The trachea of anesthetized guinea pig was cannulated and the ITP recorded on a polygraph under artificial ventilation. Arterial blood pressure (ABP; measure of hypotensive activity) was also measured during the experiment. Data was obtained for both intravenous and intraduodenal administration.
To assess the separation of desirable bronchodilator activity from undesirable cardiovascular (hypotensive) effect in the test compounds, the ratio of hypotensive ED20 /bronchodilating ED50 was calculated and indicated in Table 1.

platelet aggregation = details: in words; Chem Pharm. Bull., 25(7), 1811-1821 (1977); cited from earlier work

| SMILES | ABP lowering, ED20 (20% reduction) ([3]; Intravenous) [mg/kg] | ABP/ITP ([4]; Intravenous) | also measured |
| --- | --- | --- | --- |
| Cn1c(=O)c2[nH]cnc2n(C)c1=O [aminophylline] | – | – | side effects [1]: gastric irritation and cardiovascular and central nervous system side effects; solubility [2]: readily soluble |
| CCCCCCOc1nc(N)c2ncn(C3CCCCC3)c2n1 [n-C6 H13 O] | > 3 | – | – |
| Nc1nc(Cl)nc2c1ncn2C1C=CCCC1 (stereo not shown) [Cl] | 2.5 | 17 | – |
| CCCCCOc1nc(N)c2ncn(C3C=CCCC3)c2n1 (stereo not shown) [n-C5 H11 O] | > 3 | – | – |
| CCOc1nc(N)c2ncn(C3CCCCC3)c2n1 [C2 H5 O] | 2.5 | 6.8 | – |
| CCCOc1nc(N)c2ncn(C3CCCCC3)c2n1 [n-C3 H7 O] | 4.4 | 12 | ABP lowering, ED20 (20% reduction) ([3]; Intraduodenal): 18 mg/kg; ABP/ITP ([4]; Intraduodenal): 15 |
| CCCCCCOc1nc(N)c2ncn(C3C=CCCC3)c2n1 (stereo not shown) [n-C6 H13 O] | 2.7 | – | – |
| Nc1nc(SC2CCCC2)nc2c1ncn2C1CCCC1 | – | – | platelet aggregation inhibition (platelet aggregation): slightly effective |
| CC(C)COc1nc(N)c2ncn(C3CCCCC3)c2n1 [iso-C4 H9 O] | > 3 | – | – |
| CCCCOc1nc(N)c2ncn(C3C=CCCC3)c2n1 (stereo not shown) [n-C4 H9 O] | > 3 | > 4.8 | – |
| CCCOc1nc(N)c2ncn(C3C=CCCC3)c2n1 (stereo not shown) [n-C3 H7 O] | 2.0 | 5.9 | ABP lowering, ED20 (20% reduction) ([3]; Intraduodenal): 2.4 mg/kg; ABP/ITP ([4]; Intraduodenal): 2.0 |
| CCCCOc1nc(N)c2ncn(C3CCCCC3)c2n1 [n-C4 H9 O] | 4.4 | 1467 | ABP lowering, ED20 (20% reduction) ([3]; Intraduodenal): 8.3 mg/kg; ABP/ITP ([4]; Intraduodenal): 5.9 |
| CCCCCOc1nc(N)c2ncn(C3CCCCC3)c2n1 [n-C5 H11 O] | > 3 | – | – |
| CCOc1nc(N)c2ncn(C3C=CCCC3)c2n1 (stereo not shown) [C2 H5 O] | 4.0 | 12 | ABP lowering, ED20 (20% reduction) ([3]; Intraduodenal): 12 mg/kg; ABP/ITP ([4]; Intraduodenal): 19 |
| CC(C)COc1nc(N)c2ncn(C3C=CCCC3)c2n1 (stereo not shown) [iso-C4 H9 O] | 2.4 | – | – |
